From ChEMBL document CHEMBL1201862, “PubChem BioAssay data set” (2004)
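Five concentrations, 48 hours, 96-well plates. GI50 is the concentration that inhibits growth by half.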 Calls of active or inactive are those of the source. Rule as the data show it: active = GI50 up to about 1.1 µM and inactive = higher.

Assays:
Test in all cases: growth of human tumour cells (NCI), 48 h
[1] = system: ACHN
[2] = system: CAKI-1
[3] = system: CCRF-CEM
[4] = system: HT-29
[5] = system: IGROV-1
[6] = system: K562
[7] = system: LOX IMVI
[8] = system: OVCAR-8
[9] = system: RXF 393
[10] = system: SK-MEL-5
[11] = system: SK-OV-3
[12] = system: SNB-75
[13] = system: SNB-78
[14] = system: SW-620
[15] = system: UACC-62
[16] = system: SF-295
[17] = system: SR
[18] = system: BT-549
[19] = system: MCF7
[20] = system: T47D

Measured: GI50

O=C1CCC(Cl)=CC2CCCN12 (configuration not stated)
inactive: [1] > 100 µM | [2] > 100 µM | [3] > 10 µM | [4] > 100 µM | [5] > 100 µM | [6] > 100 µM | [7] > 100 µM | [8] > 100 µM | [9] > 100 µM | [10] > 100 µM | [11] > 100 µM | [12] > 100 µM | [13] > 100 µM | [14] > 100 µM | [15] > 100 µM

C=CCNC(=S)OCCCCCCCCCC
inactive: [1] 18.5 µM | [2] 19.1 µM | [3] 15.7 µM | [4] 18.6 µM | [5] 20 µM | [6] 13.8 µM | [7] 13.6 µM | [8] 17.1 µM | [9] 15.5 µM | [16] 19.1 µM | [10] 16.7 µM | [11] 24.3 µM | [12] 23.6 µM | [13] 19.5 µM | [17] 20.9 µM | [14] 18.7 µM | [15] 16.5 µM

CCc1cccc(C(C)CC)c1NC(=O)CC1C(=O)Nc2ccccc2S1(=O)=O (configuration not stated)
inactive: [1] 23.6 µM | [2] 15.4 µM | [3] 5.22 µM | [4] 15.2 µM | [5] 20.6 µM | [6] 4.95 µM | [7] 6.49 µM | [8] 4.22 µM | [16] 25.1 µM | [10] 45.9 µM | [11] 43.2 µM | [12] 14.8 µM | [13] 14.2 µM | [14] 8.61 µM | [15] 22.3 µM

O=C(CC1C(=O)Nc2ccccc2[S+]1[O-])Nc1cc(Cl)ccc1Cl (configuration not stated)
inactive: [1] > 100 µM | [2] > 100 µM | [3] > 100 µM | [4] > 100 µM | [5] > 100 µM | [6] > 100 µM | [7] > 100 µM | [8] > 100 µM | [9] > 100 µM | [16] > 100 µM | [10] > 100 µM | [12] > 100 µM | [13] > 100 µM | [17] > 100 µM | [14] > 100 µM | [15] > 100 µM

CC(=O)OCC1OC(N=[N+]=[N-])C(OC(C)=O)C(OC(C)=O)C1OC1OC(COC(C)=O)C(OC(C)=O)C(OC(C)=O)C1OC(C)=O (configuration not stated)
inactive: [1] > 100 µM | [2] > 100 µM | [3] > 100 µM | [4] > 100 µM | [5] > 100 µM | [6] > 100 µM | [7] > 100 µM | [8] > 100 µM | [9] 35.7 µM | [16] > 100 µM | [10] > 100 µM | [11] > 100 µM | [12] 20.5 µM | [13] 71.6 µM | [14] > 100 µM | [15] > 100 µM

CCOc1nc(OCC)nc(-c2cccn2-c2ccccc2)n1
inactive: [1] 32.2 µM | [2] 30.5 µM | [3] 29.6 µM | [4] 34.6 µM | [5] 29.6 µM | [6] 30.5 µM | [8] 35.5 µM | [9] 29.5 µM | [16] 33.7 µM | [11] 33 µM | [13] 32.3 µM | [17] 26.3 µM | [14] 50.4 µM | [15] 27.7 µM

CN1CCc2c1nc(-c1ccccc1)c1c2N(C)CC1
inactive: [1] > 100 µM | [2] 28.1 µM | [3] 60.5 µM | [4] 31.1 µM | [5] > 100 µM | [6] 25.4 µM | [7] 49 µM | [8] 57.4 µM | [9] 43.9 µM | [16] 30.1 µM | [10] 36.1 µM | [11] > 100 µM | [12] > 100 µM | [13] > 100 µM | [14] 86.9 µM | [15] > 100 µM

Nn1c(S)nnc1N/N=C1/C(=O)Nc2c(Cl)cc(Cl)cc21
inactive: [1] 76.9 µM | [2] 69 µM | [3] 37.1 µM | [4] > 100 µM | [5] 92.9 µM | [6] 31.2 µM | [7] 48.5 µM | [8] > 100 µM | [9] 17.9 µM | [16] > 100 µM | [10] > 100 µM | [11] 37.2 µM | [13] > 100 µM | [17] 38.3 µM | [14] > 100 µM | [15] > 100 µM

O=C(CSc1nc2ccc(I)cc2c(=O)n1Cc1ccccc1)Nc1ccc(Br)cc1
inactive: [1] > 100 µM | [18] 37.1 µM | [2] 1.35 µM | [3] > 100 µM | [4] > 100 µM | [5] 29.2 µM | [6] 24.7 µM | [7] > 100 µM | [19] > 100 µM | [8] 13.4 µM | [9] 43.9 µM | [16] 35.6 µM | [10] 43.2 µM | [11] > 100 µM | [12] 13.8 µM | [17] 11.3 µM | [14] 97.5 µM | [20] 97.9 µM | [15] > 100 µM

O=C(NCCCNCCCNC(=O)c1cc(-c2ccccc2)nc2ccccc12)c1cc(-c2ccccc2)nc2ccccc12
inactive: [1] 2.12 µM | [18] 10.2 µM | [2] 1.9 µM | [3] 1.63 µM | [4] 1.75 µM | [5] 1.88 µM | [6] 1.79 µM | [7] 1.8 µM | [19] 1.66 µM | [8] 2.56 µM | [9] 1.77 µM | [16] 1.88 µM | [10] 1.78 µM | [11] 2.21 µM | [12] 1.49 µM | [17] 1.67 µM | [14] 2.39 µM | [20] 2.02 µM | [15] 1.93 µM

CCCCCCCCCCCCCCCCCCCCCCC(=O)N[C@H]1CCc2cc(OC)c(OC)c(OC)c2-c2ccc(SC)c(=O)cc21
inactive: [1] 63.8 µM | [2] 46.7 µM | [3] 30.1 µM | [4] 30.6 µM | [5] 49.1 µM | [6] 30.5 µM | [8] 26.5 µM | [16] 34.6 µM | [10] 28.4 µM | [11] 7.19 µM | [12] 20.2 µM | [13] 41.9 µM | [17] 23.5 µM | [14] 30.3 µM | [15] 40 µM

Cc1ccc(S(=O)(=O)N2CCNCCN(S(=O)(=O)c3ccc(C)cc3)CCN(S(=O)(=O)c3ccc(C)cc3)CC2)cc1
inactive: [1] > 100 µM | [18] > 100 µM | [2] > 100 µM | [3] > 100 µM | [4] > 100 µM | [5] > 100 µM | [6] > 100 µM | [7] > 100 µM | [19] > 100 µM | [8] > 100 µM | [9] > 100 µM | [16] > 100 µM | [10] > 100 µM | [11] > 100 µM | [12] 54.3 µM | [17] > 100 µM | [14] > 100 µM | [20] > 100 µM | [15] > 100 µM
